Data on 32 molecules can be found in patent publication US9624215B2, “Amine derivative or salt thereof” (TOYAMA CHEMICAL CO., LTD., priority 2012, dated 2017).

The test system of assay [1] is TNFα production in LPS-stimulated Raw264.7 cells. The assay can be described thus: TNFα production inhibition test. Format: cell-based. The settings on record: Mus musculus, test compound 1 μmol/L, LPS 1 μg/mL, 16 hours, ELISA, read-out: Inhibition rate of TNFα production. Here is the method:
7×10^4 mouse macrophage-derived cell line Raw264.7 cells were suspended in 100 μL of RPMI1640 medium containing 10% fetal bovine serum, plated in a 96-well plate and incubated overnight. The culture supernatant was removed and the test compound diluted in RPMI1640 medium containing 1% fetal bovine serum (final concentration: 1 μmol/L) was added. One hour after the addition, LPS (B4:0111) (Sigma-Aldrich, L2630) was added to a final concentration of 1 μg/mL. 16 hours after the stimulation, the culture supernatant was collected and the amount of TNFα produced in the culture supernatant was determined using ELISA kit (R&D Systems, MTA00B).
The inhibition rate was calculated from the following formula. Inhibition rate (%)=100−(amount of TNFα produced in the presence of test compound/amount of TNFα produced in the absence of test compound)×100
(In general: An ELISA detects its analyte on a solid surface through an enzyme-linked reagent.)

Assay [2] has as its system normal human neonatal foreskin epidermal keratinocytes (NHEK-F). The assay can be described thus: Cell proliferation inhibition test. The class given is cell-based. The following applies: Keratinocyte, 72 h, NHEK-F cells, three days incubation, ATPlite or CellTiterGlo, read-out: IC50 (concentration of the compound at which the cell count is reduced by 50%). The method, boiled down: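 IC50 is the compound level halving cell count relative to untreated wells, with counts from ATP-based luminescence (ATPlite or CellTiterGlo). Readout followed 3 days of compound exposure of overnight-attached neonatal foreskin keratinocytes (2×10^3/well, Humedia-EG2 medium).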

For orientation: inhibition means the percentage by which the read-out fell short of the control.

pIC50: −log10 of the molar value.

With `CC(C)n1ccc2cc(Nc3ccc(C4CC4)cc3C(=O)O)ccc21` [Example 112, 5-cyclopropyl-2-((1-isopropyl-1H-indol-5-yl)amino)benzoic acid], the inhibition at 1 µM in assay [1] is no less than 50%. For the same molecule, the pIC50 in assay [2] was no less than 8.00.
On to `O=C(O)c1cc(Cl)ccc1Nc1ccc2c(ccn2-c2ccccc2C(F)(F)F)c1` [Example 337, 5-chloro-2-((1-(2-(trifluoromethyl)phenyl)-1H-indol-5-yl)amino)benzoic acid], for which the inhibition at 1 µM in assay [1] is no less than 50%. In addition, in assay [2], the pIC50 was no less than 8.00.
With `O=C(O)c1cc(C2CC2)ccc1Nc1ccc2c(c1)CC(=O)N2CC1CC1` [Example 108, 5-cyclopropyl-2-((1-(cyclopropylmethyl)-2-oxoindolin-5-yl)amino)benzoic acid], the inhibition at 1 µM in assay [1] was no less than 50%. The pIC50 in assay [2] was 7.00 to 8.00.
On to `Cn1c(=O)n(Cc2ccccc2)c2ccc(Nc3ccc(Cl)cc3C(=O)O)cc21` [Example 65, 2-((1-benzyl-3-methyl-2-oxo-2,3-dihydro-1H-benzo[d]imidazol-5-yl)amino)-5-chlorobenzoic acid], for which, in assay [1], the inhibition at 1 µM is no less than 50%. The pIC50 in assay [2] was 6.00 to 7.00.
Turning to `CC(C)(C)c1cc2cc(Nc3ccc(C4CC4)cc3C(=O)O)ccc2[nH]1` [Example 110, 2-((2-(tert-butyl)-1H-indol-5-yl)amino)-5-cyclopropylbenzoic acid], the inhibition at 1 µM in assay [1] was no less than 50%. Besides, the pIC50 in assay [2] was 7.00 to 8.00.
The like results for `O=C(O)c1cc(C2CC2)ccc1Nc1ccc2c(c1)n(CC1CC1)c(=O)n2-c1ccccc1` [Example 82, 5-cyclopropyl-2-((3-(cyclopropylmethyl)-2-oxo-1-phenyl-2,3-dihydro-1H-benzo[d]imidazol-5-yl)amino)benzoic acid] were, in that order, no less than 50% and 7.00 to 8.00.
`O=C(O)c1cc(Cl)ccc1Nc1ccc2c(ccn2Cc2ccccc2)c1` [Example 2, 2-((1-benzyl-1H-indol-5-yl)amino)-5-chlorobenzoic acid]: the inhibition at 1 µM in assay [1] is no less than 50%. For the same molecule, the pIC50 in assay [2] is no less than 8.00.
For `O=C(O)c1cc(Cl)ccc1Nc1ccc2c(c1)CN(c1ccccc1)C2=O` [Example 281, 5-chloro-2-((1-oxo-2-phenylisoindolin-5-yl)amino)benzoic acid] the same measures were no less than 50% and 6.00 to 7.00.
As to `O=C(O)c1cc(Cl)ccc1Nc1ccc2c(cnn2Cc2ccccc2)c1` [Example 21, 2-((1-benzyl-1H-indazol-5-yl)amino)-5-chlorobenzoic acid], the inhibition at 1 µM in assay [1] was no less than 50%. Moreover, the pIC50 in assay [2] was no less than 8.00.
Take `O=C(O)c1cc(C2CC2)ccc1Nc1ccc2c(c1)CC(=O)N2Cc1ccccc1` [Example 107, 2-((1-benzyl-2-oxoindolin-5-yl)amino)-5-cyclopropylbenzoic acid]: in assay [1], the inhibition at 1 µM is no less than 50%. In addition, the pIC50 in assay [2] is 7.00 to 8.00.
The like results for `O=C(O)c1cc(Cl)ccc1Nc1ccc2c(ccn2Cc2cccc(OC(F)(F)F)c2)c1` [Example 363, 5-chloro-2-((1-(3-(trifluoromethoxy)benzyl)-1H-indol-5-yl)amino)benzoic acid] were, in that order, no less than 50% and no less than 8.00.
Turning to `O=C(O)c1cc(C2CC2)ccc1Nc1ccc2c(ccn2-c2ccccc2)c1` [Example 59, 5-cyclopropyl-2-((1-phenyl-1H-indol-5-yl)amino)benzoic acid], the inhibition at 1 µM in assay [1] was no less than 50%. In addition, in assay [2], the pIC50 is no less than 8.00.
Turning to `O=C(O)c1cc(Cl)cnc1Nc1ccc2c(ccn2Cc2cccc(OC(F)(F)F)c2)c1` [Example 361, 5-chloro-2-((1-(3-(trifluoromethoxy)benzyl)-1H-indol-5-yl)amino)nicotinic acid], the inhibition at 1 µM in assay [1] is no less than 50%. Moreover, in assay [2], the pIC50 is 7.00 to 8.00.
With `COc1ccc(-n2ccc3cc(Nc4ccc(C5CC5)cc4C(=O)O)ccc32)cc1` [Example 373, 5-cyclopropyl-2-((1-(4-methoxyphenyl)-1H-indol-5-yl)amino)benzoic acid], the inhibition at 1 µM in assay [1] was no less than 50%. Further, the pIC50 in assay [2] is no less than 8.00.
For `CN(C)c1ccc(Cn2ccc3cc(Nc4ccc(C5CC5)cc4C(=O)O)ccc32)cc1` [Example 198, 5-cyclopropyl-2-((1-(4-(dimethylamino)benzyl)-1H-indol-5-yl)amino)benzoic acid] the same measures were no less than 50% and no less than 8.00.
For `O=C(O)c1cc(Cl)ccc1Nc1ccc2c(c1)sc(=O)n2Cc1ccccc1` [Example 67, 2-((3-benzyl-2-oxo-2,3-dihydrobenzo[d]thiazol-6-yl)amino)-5-chlorobenzoic acid] the same measures were no less than 50% and 7.00 to 8.00.
The like results for `O=C(O)c1cc(Cl)cnc1Nc1ccc2c(cnn2Cc2ccccc2)c1` [Example 354, 2-((1-benzyl-1H-indazol-5-yl)amino)-5-chloronicotinic acid] were, in that order, no less than 50% and 7.00 to 8.00.
`O=C(O)c1cc(C2CC2)ccc1Nc1ccc2c(c1)n(CC(F)(F)F)c(=O)n2-c1ccccc1` [Example 80, 5-cyclopropyl-2-((2-oxo-1-phenyl-3-(2,2,2-trifluoroethyl)-2,3-dihydro-1H-benzo[d]imidazol-5-yl)amino)benzoic acid]: the inhibition at 1 µM in assay [1] is no less than 50%. The pIC50 in assay [2] is 7.00 to 8.00.
`O=C(O)c1cc(Cl)ccc1Nc1ccc2c(ccn2-c2cccc(C(F)(F)F)c2)c1` [Example 333, 5-chloro-2-((1-(3-(trifluoromethyl)phenyl)-1H-indol-5-yl)amino)benzoic acid]: the inhibition at 1 µM in assay [1] is no less than 50%. Further, the pIC50 in assay [2] was no less than 8.00.
In the case of `O=C(O)c1cc(Cl)cnc1Nc1ccc2c(ccn2Cc2cccc(OCC(F)(F)F)c2)c1` [Example 357, 5-chloro-2-((1-(3-(2,2,2-trifluoroethoxyl)benzyl)-1H-indol-5-yl)amino)nicotinic acid], the inhibition at 1 µM in assay [1] is no less than 50%. Besides, the pIC50 in assay [2] was 7.00 to 8.00.
As for `O=C(O)c1cc(Cl)ccc1Nc1ccc2c(c1)CCN2c1ccccc1` [Example 283, 5-chloro-2-((1-phenylindolin-5-yl)amino)benzoic acid], in assay [1], the inhibition at 1 µM was no less than 50%. In addition, the pIC50 in assay [2] is no less than 8.00.
Turning to `O=C(O)c1cc(C2CC2)ccc1Nc1ccc2c(c1)sc(=O)n2Cc1ccccc1` [Example 73, 2-((3-benzyl-2-oxo-2,3-dihydrobenzo[d]thiazol-6-yl)amino)-5-cyclopropylbenzoic acid], in assay [1], the inhibition at 1 µM is no less than 50%. In addition, the pIC50 in assay [2] was no less than 8.00.
Turning to `O=C(O)c1cc(C2CC2)ccc1Nc1ccc2c(ccn2C(=O)c2ccccc2)c1` [Example 202, 2-((1-benzoyl-1H-indol-5-yl)amino)-5-cyclopropylbenzoic acid], the inhibition at 1 µM in assay [1] is no less than 50%. Moreover, the pIC50 in assay [2] was no less than 8.00.
Turning to `O=C(O)c1cc(C2CC2)ccc1Nc1ccc2c(ccn2CC2CC2)c1` [Example 104, 5-cyclopropyl-2-((1-(cyclopropylmethyl)-1H-indol-5-yl)amino)benzoic acid], the inhibition at 1 µM in assay [1] was no less than 50%. The pIC50 in assay [2] is no less than 8.00.
For `O=C(O)c1cc(Cl)ccc1Nc1ccc2c(ccn2Cc2cccc(O)c2)c1` [Example 17, 5-chloro-2-((1-(3-hydroxybenzyl)-1H-indol-5-yl)amino)benzoic acid], the inhibition at 1 µM in assay [1] was no less than 50%. In assay [2], the pIC50 was no less than 8.00.
As for `O=C(O)c1cc(Cl)ccc1Nc1ccc2c(ccn2C2CC2)c1` [Example 98, 5-chloro-2-((1-(cyclopropyl)-1H-indol-5-yl)amino)benzoic acid], in assay [1], the inhibition at 1 µM is no less than 50%. Moreover, the pIC50 in assay [2] was 7.00 to 8.00.
For `O=C(O)c1cc(Cl)ccc1Nc1ccc2c(ccn2Cc2cccc(OCCO)c2)c1` [Example 300, 5-chloro-2-((1-(3-(2-hydroxyethoxy)benzyl)-1H-indol-5-yl)amino)benzoic acid], the inhibition at 1 µM in assay [1] was no less than 50%. The pIC50 in assay [2] is 7.00 to 8.00.
The like results for `O=C(O)c1cc(C2CC2)ccc1Nc1cnc2c(ccn2Cc2ccccc2)c1` [Example 27, 2-((1-benzyl-1H-pyrrolo(2,3-b)pyridin-5-yl)amino)-5-cyclopropylbenzoic acid] were, in that order, no less than 50% and no less than 8.00.
For `O=C(O)c1cc(Cl)ccc1Nc1ccc2c(ccn2Cc2cccc(OC(F)F)c2)c1` [Example 277, 5-chloro-2-((1-(3-(difluoromethoxy)benzyl)-1H-indol-5-yl)amino)benzoic acid], in assay [1], the inhibition at 1 µM was no less than 50%. The pIC50 in assay [2] was no less than 8.00.
Consider `O=C(O)c1cc(Cl)ccc1Nc1ccc2c(c1)ncc(=O)n2Cc1ccccc1` [Example 69, 2-((1-benzyl-2-oxo-1,2-dihydroquinoxalin-6-yl)amino)-5-chlorobenzoic acid], for which the inhibition at 1 µM in assay [1] was no less than 50%. For the same molecule, the pIC50 in assay [2] was 6.00 to 7.00.
With `O=C(O)c1cc(Cl)ccc1Nc1ccc2c(ccn2Cc2cccc(OCC(F)(F)F)c2)c1` [Example 84, 5-chloro-2-((1-(3-(2,2,2-trifluoroethoxyl)benzyl)-1H-indol-5-yl)amino)benzoic acid], the inhibition at 1 µM in assay [1] is no less than 50%. Besides, the pIC50 in assay [2] is no less than 8.00.
Regarding `O=C(O)c1cc(C2CC2)ccc1Nc1ccc2c(ccn2-c2ccc(C(F)(F)F)cc2)c1` [Example 375, 5-cyclopropyl-2-((1-(4-(trifluoromethyl)phenyl)-1H-indol-5-yl)amino)benzoic acid], the inhibition at 1 µM in assay [1] was no less than 50%. The pIC50 in assay [2] was no less than 8.00.
